# Measurements taken from PubChem BioAssay AID608 (Sanford-Burnham Center for Chemical Genomics, 2007).
# Calls of active or inactive are those of the source. No rule for the calls is given here.
# Biological target: Peptidyl-prolyl cis-trans isomerase FKBP1A (Homo sapiens) (UniProt P62942)
# Assay: small-molecule binding to FKBP12 – biophysical, NMR detection (AID 608)
# Settings: purified FKBP12
# Peptidyl-prolyl cis-trans isomerase FKBP1A (Homo sapiens), sequence (P62942 whole entry, looked up): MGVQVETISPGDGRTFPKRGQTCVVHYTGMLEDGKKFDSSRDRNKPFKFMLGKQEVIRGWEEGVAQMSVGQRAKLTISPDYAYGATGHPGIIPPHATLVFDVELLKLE
row,SMILES,Kd
1,CC1CC2(NC(=O)NC2=O)C(C)CN1C (stereo not drawn),> 4 mM (inactive)
2,Clc1ccccc1OCCn1ccnc1,> 4 mM (inactive)
3,O=C(O)c1ccccc1SCC(=O)N1CCOCC1,> 4 mM (inactive)
4,CN1CCN(c2ccc(N)cc2)CC1,> 4 mM (inactive)
5,CC(=O)c1cc2c(s1)SCC(=O)N2,> 4 mM (inactive)
6,NC(=O)c1oc2ccccc2c1N,> 4 mM (inactive)
7,CC1CCN(C(=O)c2ccc(NS(C)(=O)=O)cc2)CC1,> 4 mM (inactive)
8,CC(=O)OC1CC[C@@]2(C)C(CCC3C2CC[C@]2(C)C(C4=CC(=O)OC4)C(OC(C)=O)CC32O)C1 (stereo partly drawn),> 4 mM (inactive)
9,CNc1nc(SC)nc(N2CCOCC2)n1,> 4 mM (inactive)
10,COc1ccc(C2(C)NC(=O)NC2=O)cc1 (stereo not drawn),> 4 mM (inactive)
11,COc1ccc2c(=O)c(OC)c(-c3ccccc3)oc2c1,> 4 mM (inactive)
12,CC1NC(C(=O)O)Cc2c1[nH]c1ccccc21 (stereo not drawn),> 4 mM (inactive)
13,CC(=O)Nc1ccc(Oc2nc(C)cc(C)n2)cc1,> 4 mM (inactive)
14,CN(C)C(=O)c1ccccc1-c1ccccc1,> 4 mM (inactive)
15,Cc1ccccc1NC(=O)c1ccccc1,> 4 mM (inactive)
16,O=C1CCc2ccccc2CN1,> 4 mM (inactive)
17,Cc1cc(SCC(=O)Nc2nccs2)nc(=O)[nH]1,> 4 mM (inactive)
18,CCc1c(C(=O)Nc2ccncc2)csc1C,> 4 mM (inactive)
19,COC1=CC(=O)C(O)=C/C1=C\C=C\c1ccccc1,> 4 mM (inactive)
20,N#Cc1cc2ccccc2nc1N,> 4 mM (inactive)
21,O=S(=O)(CCN1CCCC1)c1ccccc1,> 4 mM (inactive)

row,SMILES,Kd
1,COc1ccc(C(N)=O)cc1N,> 4 mM (inactive)
2,O=C1N=C(N2CCOCC2)S/C1=C\c1cccnc1,> 4 mM (inactive)
3,COCC(=O)Nc1cccc(Br)c1,> 4 mM (inactive)
4,Cc1nc2nc(-c3ccco3)nn2c(C)c1Cl,> 4 mM (inactive)
5,COc1ccc(C)cc1S(=O)(=O)NC1CCCC1,> 4 mM (inactive)
6,COc1ccccc1-c1noc(-c2ccncc2)n1,> 4 mM (inactive)
7,Cc1ccc(S(=O)(=O)/N=C2\NC(=O)CS2)cc1,> 4 mM (inactive)
8,CSc1n[nH]c(NCc2cccs2)n1,> 4 mM (inactive)
9,O=C1CCCC(=O)N1c1ccc(O)cc1,> 4 mM (inactive)
10,O=C(NCCO)c1cc2ccccc2c(=O)s1,> 4 mM (inactive)
11,CC(=O)O[C@H]1C[C@@H](OC(C)=O)C(C)(C)C2C[C@@H](OC(C)=O)[C@]3(C)C(CC[C@@]4(C)[C@H](c5ccoc5)C(=O)[C@H]5O[C@]543)[C@]21C (stereo partly drawn),> 4 mM (inactive)
12,Cc1ccc(/C=C2/NC(=S)NC2=O)s1,> 4 mM (inactive)
13,Cc1ccc(Nc2nc(N)nc(CC#N)n2)cc1,> 4 mM (inactive)
14,Nc1ccc2c(c1)CCCC2=O,> 4 mM (inactive)
15,CC(C)CCCC(C)[C@H]1CCC2C3CC[C@@H]4C[C@H](O)CC[C@]4(C)C3CC[C@@]21C (stereo partly drawn),> 4 mM (inactive)
16,CC(C)NC(=O)Cc1c(O)c2ccccc2[nH]c1=O,> 4 mM (inactive)
17,O=C1C=CC(=O)N1c1ccc(N2CCOCC2)cc1,> 4 mM (inactive)
18,Cc1cc(C)n(-c2ccc(N)cc2)n1,> 4 mM (inactive)
19,O=C(NCc1ccccn1)c1ccccc1Cl,> 4 mM (inactive)
20,Cc1nnc(SCC(=O)Nc2ccccc2)[nH]c1=O,> 4 mM (inactive)
21,O=C(NCc1ccccc1)c1cnsn1,> 4 mM (inactive)

row,SMILES,Kd
1,O=CN1CCN(C(=O)c2ccc(F)cc2)CC1,> 4 mM (inactive)
2,CC(=O)Nc1nnc(-c2ccc(Cn3c(-c4cscn4)nc4ccccc43)cc2)s1,inactive
3,CC(C)NC(=S)N1CCN(S(C)(=O)=O)CC1,> 4 mM (inactive)
4,COc1c(-c2coc3cc4c(cc3c2=O)CC(OC(C)=O)C(C)(C)O4)ccc2c1C=CC(C)(C)O2 (stereo not drawn),> 4 mM (inactive)
5,CC(=O)OC/C=C(\C)CC/C=C(\C)CC/C=C(\C)CC/C=C(\C)CC/C=C(\C)CC/C=C(\C)CC/C=C(\C)CC/C=C(\C)CCC=C(C)C,> 4 mM (inactive)
6,Cc1cccc(NC(=O)c2ccccc2C(=O)O)c1,> 4 mM (inactive)
7,Nc1c(C(=O)O)sc2ncccc12,> 4 mM (inactive)
8,CCN(CC)S(=O)(=O)c1cccc2nsnc12,> 4 mM (inactive)
9,O=C1CNc2cc(C(=O)O)ccc2N1,> 4 mM (inactive)
10,O=C(/C=C1\SC(=O)NC1=O)NCc1ccccc1,> 4 mM (inactive)
11,CC(=O)Oc1c(C)c(C)c2c(c1C)CCC(C)(CCCC(C)CCCC(C)CCCC(C)C)O2 (stereo not drawn),> 4 mM (inactive)
12,COCc1cc(=O)oc2cc(N)ccc12,> 4 mM (inactive)
13,Cc1cc(OC(=O)c2c(C)cc(O)cc2O)cc(O)c1C(=O)O,> 4 mM (inactive)
14,O=C(O)C1COc2ccccc2O1 (stereo not drawn),> 4 mM (inactive)
15,NC1=NC(=O)/C(=C\c2cccc(C(=O)O)c2)S1,> 4 mM (inactive)
16,O=C(NC(=S)NN1CCOCC1)c1cccs1,> 4 mM (inactive)
17,CS(=O)(=O)N1CCN(c2ncccn2)CC1,> 4 mM (inactive)
18,C[C@@H]1O[C@@H](O[C@H]2[C@H](Oc3cc(O)c4c(=O)cc(-c5ccc(O)cc5)oc4c3)O[C@H](CO)[C@@H](O)[C@@H]2O)[C@H](O)[C@H](O)[C@H]1O,> 4 mM (inactive)
19,CCOC(=O)CSCC(=O)Nc1nccs1,> 4 mM (inactive)
20,O=C(Nc1nnc(-c2ccco2)o1)C1=COCCO1,> 4 mM (inactive)
21,COc1ccc(C2=CC(=O)C=CC2=O)cc1,> 4 mM (inactive)

row,SMILES,Kd
1,O=C(C1CCNCC1)N1CCCCCC1,> 4 mM (inactive)
2,COc1cccc(NC(=O)c2ncn[nH]2)c1,> 4 mM (inactive)
3,O=C(Nc1ccccc1)Nc1ccccn1,> 4 mM (inactive)
4,NCCNC(=S)Nc1ccccc1,> 4 mM (inactive)
5,CC(CC(O)C1OC1(C)C)[C@@H]1CCC2(C)C3=CCC4C(C)(C)C(=O)CCC4(C)C3CC[C@@]12C (stereo partly drawn),> 4 mM (inactive)
6,N/C(=N/S(=O)(=O)c1cccs1)c1ccccc1,> 4 mM (inactive)
7,NC(=O)c1ccc(Cl)c(N2C(=O)CCC2=O)c1,> 4 mM (inactive)
8,COc1ccc2c(c1OC)C(=O)O[C@H]2[C@H]1c2cc3c(cc2CCN1C)OCO3,> 4 mM (inactive)
9,COc1cccc(Oc2ccc(N)cn2)c1,> 4 mM (inactive)
10,Cn1ncc2c(=O)n(CC(=O)c3ccccc3)cnc21,> 4 mM (inactive)
11,C[C@H]1[C@H](C)CC[C@]2(C(=O)O)CC[C@]3(C)C(=CCC4[C@@]5(C)C[C@@H](O)[C@H](O)[C@@](C)(CO)C5[C@H](O)C[C@]43C)[C@H]12 (stereo partly drawn),> 4 mM (inactive)
12,CCOC(=O)C1CCN(c2ccc(C#N)cc2)CC1,> 4 mM (inactive)
13,Cc1ccc(C(=O)Nn2cnnc2)s1,> 4 mM (inactive)
14,Nc1cc(F)cc(F)c1,> 4 mM (inactive)
15,Cc1c(C)c2c(c(C)c1O)CCC(C)(CCCC(C)CCCC(C)CCCC(C)C)O2 (stereo not drawn),> 4 mM (inactive)
16,COc1ccc(CC(=O)c2ccc(O)cc2O)cc1,> 4 mM (inactive)
17,c1ccc2[nH]c(CCn3cncn3)nc2c1,> 4 mM (inactive)
18,CN1CCC(N2CCN(C)CC2)CC1,> 4 mM (inactive)
19,COc1ccc(C)cc1S(=O)(=O)N1CCCCC1,> 4 mM (inactive)
20,OCc1ccc2c(c1)OCO2,> 4 mM (inactive)
